In patent publication US20190284129A1, “LIPID COMPOUNDS AND COMPOSITIONS AND THEIR OPTHALMIC USE” (BIOZEP AS, priority 2015, published 2019):

Experiments:
Assay type in all cases: cell-based
human PPARgamma = target: T1, human PPARgamma (Homo sapiens, UniProt P37231); assay: cellular GAL4 reporter gene assay, agonist mode, PPARgamma
T1 construct: expressed in transfected cells; host or cells: HEK293 (DSMZ ACC 305)
T1 sequence (P37231 238-503 limits assumed): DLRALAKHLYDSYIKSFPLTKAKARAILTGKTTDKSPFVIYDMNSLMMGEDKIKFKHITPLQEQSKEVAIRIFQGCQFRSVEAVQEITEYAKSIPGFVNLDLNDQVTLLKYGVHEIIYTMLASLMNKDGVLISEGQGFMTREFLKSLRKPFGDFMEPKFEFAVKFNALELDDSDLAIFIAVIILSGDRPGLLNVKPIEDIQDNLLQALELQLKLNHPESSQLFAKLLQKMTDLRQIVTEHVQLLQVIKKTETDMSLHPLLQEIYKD
Source text: (§1) The assays were done in HEK293 cells (DSMZ ACC 305). The plasmids used in the GAL4 assay system were derivatives of Stratagene's […] plasmids: the reporter plasmid pFR-Luc (containing a synthetic promoter with five tandem repeats of the yeast GAL4 binding sites that control expression of the Photinus pyralis (American firefly) luciferase gene), and pCMV-BD (for fusions of nuclear receptor ligand binding domains to the DNA-binding domain of the yeast protein GAL4). In order to improve experimental accuracy, a second reporter-Renilla reniformis luciferase, driven by a constitutive promoter-was included as an internal control. Using the control reporter (Renilla Luciferase) allowed corrections for variations in experimental handling, e.g. transfection efficacy, cell viability, pipetting errors, cell lysis efficiency and assay efficiency. […] The compounds BIZ-102 and BIZ-103 were tested at the human PPARbeta/delta and PPARgamma receptors using the same cellular GAL4 Reporter gene assays as in Example 6. The assays were run in agonist mode to detect agonistic activities of the tested compounds.

human PPARbeta/delta = target: T2, human PPARbeta/delta (Homo sapiens, UniProt Q03181); assay: cellular GAL4 reporter gene assay, agonist mode, PPARbeta/delta
T2 construct: expressed in transfected cells; host or cells: HEK293 (DSMZ ACC 305)
T2 sequence (Q03181 211-439 limits assumed): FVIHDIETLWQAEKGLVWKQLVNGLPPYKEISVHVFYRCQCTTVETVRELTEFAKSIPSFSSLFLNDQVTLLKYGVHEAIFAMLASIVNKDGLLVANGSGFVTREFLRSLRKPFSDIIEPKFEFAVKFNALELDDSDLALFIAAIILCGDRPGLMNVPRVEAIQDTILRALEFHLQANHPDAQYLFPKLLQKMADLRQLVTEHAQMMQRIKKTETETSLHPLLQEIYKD
Source text: as §1

ARPE-19 cells = assay: oxidative stress (tert-butyl hydroperoxide) cytolysis assay in ARPE-19 retinal pigment epithelial cells; conditions: for inhibition of the cytotoxicity induced by t-BHP: BIZ-102 10 μM
Protocol: In order to evaluate the potential of BIZ-101 to protective the eye from oxidative stress damage the compound was tested in a cell based assay. Oxidative stress was induced in an ARPE-19 cell line using tert-butyl hydroperoxide at different concentrations. The cellular viability was kinetically monitored and measured by analysing the plasma membrane integrity based on the incorporation of a non-permeant and fluorescent DNA intercalating agent that selectively stain cytolytic cells with comprised plasma membranes.
(§2) The ARPE-19 cell line was seeded and cultured in DMEM-F12 medium+10% SVF for 24 hrs in a 96 well plate. Cells were pre-treated or not with either fenofibric acid (25 μM) or compound BIZ-101 (10 μM) during this 24 hr period. After 24 hrs, the different concentrations of t-butyl hydroperoxide were added in the presence of a fluorescent DNA intercalating agent for the following monitoring. Live content time-lapse imaging was performed with a sampling rate of 1 image every 2 hr over a 96 hrs period. The number of fluorescent/cytolytic cells were counted and reported during the experiment. The treatment conditions were tested in one experiment session in a triplicate format.
Fenofibric acid was used at 25 μM and was ordered from Sigma Aldrich. The day of the pre-treatment, a 25 mM stock solution of fenofibric acid was prepared in DMSO and diluted in the complete culture medium at 25 μM. 100 μL of this solution or 100 μL of complete culture medium+0.1% DMSO replaced the 100 μL of the complete culture medium already present in the well. The day of the treatment with t-butyl hydroperoxide, a 2 times concentrated solution of fenofibric acid was freshly diluted in the complete culture medium and 50 μL of this solution or 50 μL of complete culture medium+0.2% DMSO were added to the 100 μL of the culture medium already present in the well.
Compound BIZ-101 was tested at a final concentration of 10 μM. A 10 mM predilution was prepared in DMSO from a 10 mM stock solution. The 10 mM solution of BIZ 101 was diluted in the complete culture medium at 10 μM. 100 μL, of this solution or 100 μL of the complete culture medium+0.1% DMSO replaced the 100 μL, of the complete culture medium already present in the well. The day of the treatment with t-butyl hydroperoxide, a 2 times concentrated solution of BIZ 101 was freshly diluted in the complete culture medium and 50 μL of this solution or 50 μL of complete culture medium+0.2% DMSO were added to the 100 μL of the culture medium already present in the well.
Preparation of the tert-butyl hydroperoxide [tBHP] solution: 0, 0.01 mM, 0.03 mM, 0.1 mM, 0.3 mM, 1 mM, 3 mM and 10 mM. A 4 times concentrated solution of tBHP was freshly diluted in the complete culture medium for each of the concentrations to be tested. 50 μL of the 4 times concentrated solution was added to the 150 μL of the cultured medium.
In order to evaluate the potential of BIZ-102 to protect the eye from oxidative stress damage the compound was tested in a cell based assay similar to Example 24 with the following changes. The oxidative stress in the ARPE-19 cell line was induced by using 3 different concentrations of tBHP: 10 μM, 30 μM and 100 μM and BIZ-102 was tested in 2 different concentrations: 1 μM and 10 μM.
as §2, with “with” for “with either fenofibric acid (25 μM) or”, “BIZ-102 (1 μM and 10” for “BIZ-101 (10”
Compound BIZ-102 was tested at a final concentration of 1 and 10 μM. […]

EC50 (human PPARgamma): 1500 nM | PPARgamma efficacy vs. Rosiglitazone (human PPARgamma): 23% | EC50 (human PPARbeta/delta): 4.3 µM | PPARbeta/delta efficacy vs. GW501516 (human PPARbeta/delta): 20%
SMILES: CCCCC/C=C\C/C=C\C/C=C\C/C=C\CCC(CC)C(=O)O (stereo not shown) [BIZ-102, (All-Z) 2-ethyl-5,8,11,14-eicosatetraenoic Acid]
inhibition of the cytotoxicity induced by t-BHP (ARPE-19 cells; 10 μM t-BHP, FIG. 9A): significant inhibition | inhibition of the cytotoxicity induced by t-BHP (ARPE-19 cells; 30 μM t-BHP, FIG. 9B): significant inhibition | effect on retinal pigment epithelial cells during conditions of oxidative stress (ARPE-19 cells; overall conclusion): protective effect
